Consider ten compounds from PubChem BioAssay (NCI).

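Results reflect a 48-hour exposure of cells in 96-well plates to compound at five concentrations. The concentration for 50% growth inhibition is given as GI50. TGI: total growth inhibition.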

Among the test systems are NCI-H23 lung; NCI-H522 lung; OVCAR-4 ovarian; OVCAR-5 ovarian; SNB-19 CNS; SW-620 colon; TK-10 renal; UO-31 renal.
Common to all, as to assay: NCI-60 cell line screen, 48 h

For `O=C(O)/C=C(\c1nc2ccc([N+](=O)[O-])cc2[nH]1)c1cc(Cl)ccc1O`, the GI50 in the test on NCI-H23 lung was 1.96 µM; in the test with NCI-H522 lung, 1.17 µM; in the test with OVCAR-4 ovarian it was 2.72 µM; in the test on OVCAR-5 ovarian, 5.29 µM; in the test on SNB-19 CNS, 3.5 µM; in the test with SW-620 colon, 3.66 µM. In addition, the GI50 is 4.11 µM with TK-10 renal and 1.54 µM in the test on UO-31 renal. The TGI in the test on NCI-H23 lung is 19.6 µM; in the test on NCI-H522 lung it was 5.03 µM; in the test with OVCAR-4 ovarian, 36.6 µM; with OVCAR-5 ovarian, 43.3 µM; in the test with SNB-19 CNS, greater than 100 µM; in the test with SW-620 colon, 17.6 µM. In addition, the TGI amounted to 15.4 µM with TK-10 renal and 9.01 µM with UO-31 renal.
As for `O=C1c2cccc([N+](=O)[O-])c2C(=O)N1c1ncn[nH]1`, the TGI with NCI-H23 lung, with NCI-H522 lung, in the test on OVCAR-4 ovarian, in the test with OVCAR-5 ovarian, in the test with SNB-19 CNS and in the test with SW-620 colon was greater than 100 µM in each case. Besides, the TGI with TK-10 renal and with UO-31 renal was greater than 100 µM each time.
Regarding `C=C(C[C@](O)(C(=O)/C=C/c1ccc(Cl)cc1)C(=O)OC)c1ccccc1`, the GI50 was 2.82 µM with NCI-H23 lung; 2.25 µM in the test on NCI-H522 lung; 3.07 µM with OVCAR-4 ovarian; 3.48 µM with OVCAR-5 ovarian; 3.69 µM with SNB-19 CNS; 2.05 µM with SW-620 colon. Also, the GI50 was 2.33 µM with TK-10 renal and 1.56 µM in the test with UO-31 renal. The TGI worked out at 11.9 µM in the test with NCI-H23 lung; 6.95 µM with NCI-H522 lung; 15.6 µM in the test with OVCAR-4 ovarian; 13.1 µM in the test with OVCAR-5 ovarian; 12.8 µM in the test on SNB-19 CNS; 5.04 µM with SW-620 colon. For the same compound, the TGI was 6.21 µM in the test on TK-10 renal and 3.2 µM in the test with UO-31 renal.
For `CS(=O)(=O)CCNCc1ccc(-c2ccc3ncnc(Nc4ccc(OCc5ccccc5)cc4)c3c2)o1`, the GI50 in the test with NCI-H23 lung is 8.57 µM; in the test with NCI-H522 lung, 3.32 µM; in the test on OVCAR-4 ovarian, 11.1 µM; in the test on OVCAR-5 ovarian, 6.51 µM; in the test with SNB-19 CNS it was 11.1 µM; in the test on SW-620 colon it was 6.94 µM. For the same compound, the GI50 was 0.285 µM with TK-10 renal and 2.95 µM in the test with UO-31 renal. Further, the TGI in the test with NCI-H23 lung was greater than 25 µM; with NCI-H522 lung, 10.4 µM; in the test with OVCAR-4 ovarian, greater than 25 µM; with OVCAR-5 ovarian, greater than 25 µM; in the test on SNB-19 CNS, greater than 25 µM; in the test with SW-620 colon, greater than 17.3 µM. The results for the TGI in the test with TK-10 renal and in the test on UO-31 renal were 9.7 µM and 8.95 µM, respectively.
Turning to `COc1ccc(N2C(=O)/C(=C/c3ccc(N(CCC#N)CCC#N)cc3C)N=C2c2cc([N+](=O)[O-])ccc2Cl)cc1`, the TGI is greater than 61.6 µM in the test on NCI-H23 lung; 12.5 µM with NCI-H522 lung; greater than 46.4 µM in the test with OVCAR-4 ovarian; greater than 63.1 µM in the test on OVCAR-5 ovarian; 28.9 µM with SNB-19 CNS; greater than 56.2 µM in the test on SW-620 colon. The TGI in the test with TK-10 renal and in the test on UO-31 renal was greater than 63.1 µM each time.
As for `Cc1ccc(C(=O)NC(C)C)cc1-c1ccc(C(=O)NCC2CC2)cc1`, the GI50 in the test on NCI-H23 lung, with NCI-H522 lung, with OVCAR-4 ovarian, in the test with OVCAR-5 ovarian, in the test on SNB-19 CNS and in the test on SW-620 colon was greater than 25 µM each time. The GI50 with TK-10 renal and in the test with UO-31 renal was greater than 25 µM in each case. Besides, the TGI in the test on NCI-H23 lung, in the test with NCI-H522 lung, in the test on OVCAR-4 ovarian, in the test with OVCAR-5 ovarian, in the test with SNB-19 CNS and in the test on SW-620 colon was greater than 25 µM in each case. For the same compound, the TGI in the test on TK-10 renal and with UO-31 renal was greater than 25 µM throughout.
On to `CCOC1Oc2ccc(C)cc2C(=O)/C1=C\Nc1ccc(C(N)=O)cc1` (stereo unspecified), for which the GI50 in the test with NCI-H23 lung was 17.4 µM; in the test with NCI-H522 lung it was 20.8 µM; in the test with OVCAR-4 ovarian, 99.8 µM; in the test on OVCAR-5 ovarian, 22 µM; with SNB-19 CNS, 18.4 µM; in the test on SW-620 colon it was 15.2 µM. In addition, the results for the GI50 in the test with TK-10 renal and in the test with UO-31 renal were 15.7 µM and 21.2 µM, respectively. In addition, the TGI in the test with NCI-H23 lung was 38.2 µM; with NCI-H522 lung, 47.3 µM; with OVCAR-4 ovarian, greater than 100 µM; in the test with OVCAR-5 ovarian it was 47.1 µM; in the test with SNB-19 CNS, greater than 100 µM; in the test with SW-620 colon it was 51.2 µM. Further, the TGI in the test with TK-10 renal was found to be 36 µM; with UO-31 renal it was 59.7 µM.
Turning to `CCOC(=O)/C(C#N)=C/c1[nH]c(C(=O)OCc2ccccc2)c(C)c1C`, the TGI in the test on NCI-H23 lung, with NCI-H522 lung, in the test on OVCAR-4 ovarian, in the test on OVCAR-5 ovarian, in the test on SNB-19 CNS and with SW-620 colon was greater than 100 µM in each case. In addition, the TGI in the test on TK-10 renal and with UO-31 renal was greater than 100 µM in each case.
`O=C(CC1C(=O)NN(c2ccc(Br)cc2)C1=O)c1cc(O)ccc1O` (stereo unspecified): the GI50 in the test with NCI-H23 lung is 19.8 µM; in the test on NCI-H522 lung, 18.5 µM; in the test on OVCAR-4 ovarian, 30.6 µM; with OVCAR-5 ovarian it was 34.7 µM; in the test with SNB-19 CNS, 22.7 µM; in the test with SW-620 colon it was 17.9 µM. Also, the GI50 was 15.5 µM in the test with TK-10 renal and 41.2 µM in the test with UO-31 renal. Further, the TGI with NCI-H23 lung, with NCI-H522 lung, in the test on OVCAR-4 ovarian, in the test on OVCAR-5 ovarian, in the test with SNB-19 CNS and with SW-620 colon was greater than 50 µM throughout. The TGI with TK-10 renal and in the test with UO-31 renal was greater than 50 µM throughout.
With `O=C(CCc1nnc2sc(-c3ccc(Cl)cc3Cl)nn12)c1nc2ccccc2[nH]1`, the GI50 is 0.694 µM in the test on NCI-H23 lung; 0.755 µM in the test on NCI-H522 lung; 0.639 µM in the test with OVCAR-4 ovarian; 1.96 µM with OVCAR-5 ovarian; 1.41 µM in the test with SNB-19 CNS; 0.229 µM in the test with SW-620 colon. Moreover, the results for the GI50 in the test on TK-10 renal and in the test on UO-31 renal were 1.29 µM and 0.838 µM, respectively. Besides, the TGI with NCI-H23 lung amounted to 3 µM; with NCI-H522 lung, 2.18 µM; in the test on OVCAR-4 ovarian it was 3.55 µM; in the test on OVCAR-5 ovarian it was 4.23 µM; with SNB-19 CNS, 5.8 µM; in the test with SW-620 colon it was 0.744 µM. In addition, the TGI with TK-10 renal was determined as 2.77 µM; in the test with UO-31 renal, 2.24 µM.
